“And” between values parts separate entries of the source, which are not always exact repeats. Identical values can stand only once.
What was measured:
[1] = test system: liver functions of the patient; conditions: oral administration; cited from earlier work
[2] = Solution stability test of zileuton in solvents (TRS %); assay type: physicochemical; conditions: for TRS increase rate %: Day 0 to Day 8
Protocol: In the solution stability test, suitability with solvents for solubilizing zileuton (ethanol, PEG400, propylene glycol, hexylene glycol, capryol 90, benzyl alcohol, water) was screened.
As a result, as illustrated in Tables 2 and 3 below, most of the solvents were suitable to zileuton under the 25° C. condition, but were unstable under the condition of 40° C. or 70° C.

[3] = Screening of excipient suitability: zileuton with excipient, stability at 50° C.; assay type: physicochemical
Protocol: Suitability of components generally used in cream formulation with respect to zieluton was screened, prior to preparing a zieluton cream formulation. […] That is, the stability of excipient at 50° C. was tested.

[4] = test system: inflammation reaction of asthma; conditions: clinical trials; oral drug; cited from earlier work
[5] = test system: Delayed Type Hypersensitivity Reaction in mouse induced by DNFB; assay: Mouse atopic dermatitis model, DNFB-induced ear inflammation; assay type: in vivo, BALB/c mouse; conditions: ear tissues after day 5 stimulation
Protocol: According to an embodiment of the present invention, the medical effect of the cream type topical pharmaceutical composition has been verified in a Delayed Type Hypersensitivity Reaction in mouse induced by DNFB. The test article was applied to a mouse's skin 3 times a day, and then the medical effect was measured. Furthermore, an excess amount of the zileuton was injected using a non-optimized test vehicle, acetone.
For this purpose, BALB/c mice were divided into […], each consisting of 10 mice. The groups were divided into a vehicle (acetone), positive control group (dexamethasone 0.05 mg/ear; Dex), and zileuton groups ([…]). And the zileuton groups were divided into cases where acetone (1 mg/ear) and the cream formulation of […] (0.2 mg/ear and 0.02 mg/ear) were used, respectively.
Then, on day 5, 20 μl of 0.3% DNFB was applied once again to cause inflammation in the ears. Then, dexamethasone and zileuton dissolved in acetone vehicle were applied to the ears at 1 hour, 6 hours, and 23 hours after the stimulation on day 5. Thicknesses of the ears were measured at 24 hours after the stimulation on day 5, and then ear tissues were taken for histopathological observation.

[6] = test system: atopic dermatitis symptoms; conditions: clinical trials; oral administration; cited from earlier work
[7] = Zileuton API alone, 2 weeks, 50° C.
[8] = Zileuton API alone, 4 weeks, 50° C.
[9] = with Carbomer 1:1, 2 weeks, 50° C.
[10] = with Carbomer 1:1, 4 weeks, 50° C.
[11] = with Ceteareth-20 1:1, 2 weeks, 50° C.
[12] = with Ceteareth-20 1:1, 4 weeks, 50° C.
[13] = with Hypromellose (HPMC) 1:1, 2 weeks, 50° C.
[14] = with Hypromellose (HPMC) 1:1, 4 weeks, 50° C.
[15] = with Hypromellose (HPMC) 1:1, Day 0
[16] = with Phospholipon 90H 1:1, 2 weeks, 50° C.
[17] = with Phospholipon 90H 1:1, 4 weeks, 50° C.
[18] = with Phospholipon 90H 1:1, Day 0
[19] = with Stearyl alcohol 1:1, 2 weeks, 50° C.
[20] = with Stearyl alcohol 1:1, 4 weeks, 50° C.
[21] = with Stearyl alcohol 1:1, Day 0
[22] = with Titanium dioxide 1:1, 2 weeks, 50° C.
[23] = with Titanium dioxide 1:1, 4 weeks, 50° C.
[24] = with Titanium dioxide 1:1, Day 0
[25] = with White wax 1:1, 2 weeks, 50° C.
[26] = with White wax 1:1, 4 weeks, 50° C.

CC(c1cc2ccccc2s1)N(O)C(N)=O (racemic) [Zileuton, (±)-1-(1-(benzo [b]thiophen-2-yl)ethyl)-1-hydroxyurea]
Hepatotoxicity [1]: significant hepatotoxicity
TRS (%) ([2]; in Benzyl alcohol, 25° C., Day 0): 1.642%
TRS increase rate % ([2]; in Benzyl alcohol, 25° C.): 0.381%
TRS (%) ([2]; in Benzyl alcohol, 25° C., Day 1): 0.869%
TRS (%) ([2]; in Benzyl alcohol, 25° C., Day 3): 1.806%
TRS (%) ([2]; in Benzyl alcohol, 25° C., Day 8): 2.023%
TRS (%) ([2]; in Benzyl alcohol, 70° C., Day 0): 1.642%
TRS increase rate % ([2]; in Benzyl alcohol, 70° C.): 22.608%
TRS (%) ([2]; in Benzyl alcohol, 70° C., Day 1): 11.350%
TRS (%) ([2]; in Benzyl alcohol, 70° C., Day 3): 20.397%
TRS (%) ([2]; in Benzyl alcohol, 70° C., Day 8): 24.250%
TRS (%) ([2]; in Capryol 90, 25° C., Day 0): 1.623%
TRS increase rate % ([2]; in Capryol 90, 25° C.): 0.578%
TRS (%) ([2]; in Capryol 90, 25° C., Day 1): 1.444%
TRS (%) ([2]; in Capryol 90, 25° C., Day 3): 1.478%
TRS (%) ([2]; in Capryol 90, 25° C., Day 8): 2.201%
TRS (%) ([2]; in Capryol 90, 70° C., Day 0): 1.623%
TRS increase rate % ([2]; in Capryol 90, 70° C.): 74.822%
TRS (%) ([2]; in Capryol 90, 70° C., Day 1): 10.312%
TRS (%) ([2]; in Capryol 90, 70° C., Day 3): 39.603%
TRS (%) ([2]; in Capryol 90, 70° C., Day 8): 76.445%
TRS (%) ([2]; in Ethanol, 25° C., Day 0): 1.255%
TRS increase rate % ([2]; in Ethanol, 25° C.): 0.882%
TRS (%) ([2]; in Ethanol, 25° C., Day 1): 1.014%
TRS (%) ([2]; in Ethanol, 25° C., Day 3): 1.951%
TRS (%) ([2]; in Ethanol, 25° C., Day 8): 2.137%
TRS (%) ([2]; in Ethanol, 40° C., Day 0): 1.255%
TRS increase rate % ([2]; in Ethanol, 40° C.): 3.449%
TRS (%) ([2]; in Ethanol, 40° C., Day 1): 1.778%
TRS (%) ([2]; in Ethanol, 40° C., Day 3): 2.375%
TRS (%) ([2]; in Ethanol, 40° C., Day 8): 4.704%
TRS (%) ([2]; in Hexylene glycol, 25° C., Day 0): 1.505%
TRS increase rate % ([2]; in Hexylene glycol, 25° C.): 0.475%
TRS (%) ([2]; in Hexylene glycol, 25° C., Day 1): 1.448%
TRS (%) ([2]; in Hexylene glycol, 25° C., Day 3): 1.583%
TRS (%) ([2]; in Hexylene glycol, 25° C., Day 8): 1.980%
TRS (%) ([2]; in Hexylene glycol, 70° C., Day 0): 1.505%
TRS increase rate % ([2]; in Hexylene glycol, 70° C.): 58.847%
TRS (%) ([2]; in Hexylene glycol, 70° C., Day 1): 8.061%
TRS (%) ([2]; in Hexylene glycol, 70° C., Day 3): 29.999%
TRS (%) ([2]; in Hexylene glycol, 70° C., Day 8): 60.352%
TRS (%) ([2]; in Polyethylene glycol (PEG-400), 25° C., Day 0): 1.427%
TRS increase rate % ([2]; in Polyethylene glycol (PEG-400), 25° C.): 2.638%
TRS (%) ([2]; in Polyethylene glycol (PEG-400), 25° C., Day 1): 1.491%
TRS (%) ([2]; in Polyethylene glycol (PEG-400), 25° C., Day 3): 2.897%
TRS (%) ([2]; in Polyethylene glycol (PEG-400), 25° C., Day 8): 4.065%
TRS (%) ([2]; in Polyethylene glycol (PEG-400), 70° C., Day 0): 1.427%
TRS increase rate % ([2]; in Polyethylene glycol (PEG-400), 70° C.): 95.715%
TRS (%) ([2]; in Polyethylene glycol (PEG-400), 70° C., Day 1): 43.725%
TRS (%) ([2]; in Polyethylene glycol (PEG-400), 70° C., Day 3): 94.366%
TRS (%) ([2]; in Polyethylene glycol (PEG-400), 70° C., Day 8): 97.142%
TRS (%) ([2]; in Propylene glycol, 25° C., Day 0): 1.457%
TRS increase rate % ([2]; in Propylene glycol, 25° C.): 0.675%
TRS (%) ([2]; in Propylene glycol, 25° C., Day 1): 1.624%
TRS (%) ([2]; in Propylene glycol, 25° C., Day 3): 1.478%
TRS (%) ([2]; in Propylene glycol, 25° C., Day 8): 2.132%
TRS (%) ([2]; in Propylene glycol, 70° C., Day 0): 1.457%
TRS increase rate % ([2]; in Propylene glycol, 70° C.): 94.868%
TRS (%) ([2]; in Propylene glycol, 70° C., Day 1): 26.382%
TRS (%) ([2]; in Propylene glycol, 70° C., Day 3): 82.228%
TRS (%) ([2]; in Propylene glycol, 70° C., Day 8): 96.325%
TRS (%) ([2]; in Water, 25° C., Day 0): 1.424%
TRS increase rate % ([2]; in Water, 25° C.): 0.541%
TRS (%) ([2]; in Water, 25° C., Day 1): 1.879%
TRS (%) ([2]; in Water, 25° C., Day 3): 1.816%
TRS (%) ([2]; in Water, 25° C., Day 8): 1.965%
TRS (%) ([2]; in Water, 70° C., Day 0): 1.424%
TRS increase rate % ([2]; in Water, 70° C.): 90.570%
TRS (%) ([2]; in Water, 70° C., Day 1): 35.171%
TRS (%) ([2]; in Water, 70° C., Day 3): 80.268%
TRS (%) ([2]; in Water, 70° C., Day 8): 91.994%
Appearance [3, 7]: White
TRS. % [3, 7]: 3.311% and 3.006%
Appearance [3, 8]: White
TRS. % [3, 8]: 2.711% and 2.493%
TRS. % ([3]; Zileuton API alone, Day 0): 2.378%
Appearance [3, 9]: White
TRS. % [3, 9]: 2.385% and 3.067%
Appearance [3, 10]: White
TRS. % [3, 10]: 2.330% and 2.403%
Appearance ([3]; with Carbomer 1:1, Day 0): White
TRS. % ([3]; with Carbomer 1:1, Day 0): 3.326%
Appearance [3, 11]: White
TRS. % [3, 11]: 3.445% and 3.365%
Appearance [3, 12]: White
TRS. % [3, 12]: 3.632% and 3.549%
Appearance ([3]; with Ceteareth-20 1:1, Day 0): White
TRS. % ([3]; with Ceteareth-20 1:1, Day 0): 2.394%
Appearance [3, 13]: White
TRS. % [3, 13]: 2.864% and 2.949%
Appearance [3, 14]: White
TRS. % [3, 14]: 2.555% and 2.580%
Appearance [3, 15]: White
TRS. % [3, 15]: 2.610%
Appearance [3, 16]: White
TRS. % [3, 16]: 2.820% and 2.846%
Appearance [3, 17]: White
TRS. % [3, 17]: 2.557% and 2.429%
Appearance [3, 18]: White
TRS. % [3, 18]: 2.400%
Appearance [3, 19]: White
TRS. % [3, 19]: 2.935% and 2.796%
Appearance [3, 20]: White
TRS. % [3, 20]: 2.512% and 2.567%
Appearance [3, 21]: White
TRS. % [3, 21]: 3.311%
Appearance [3, 22]: White
TRS. % [3, 22]: 2.803% and 2.839%
Appearance [3, 23]: White
TRS. % [3, 23]: 2.507% and 2.504%
Appearance [3, 24]: White
TRS. % [3, 24]: 2.344%
Appearance [3, 25]: White
TRS. % [3, 25]: 2.863% and 2.843%
Appearance [3, 26]: White
TRS. % [3, 26]: 2.459% and 2.381%
Appearance ([3]; with White wax 1:1, Day 0): White
TRS. % ([3]; with White wax 1:1, Day 0): 2.372%
Anti-inflammatory effect in asthma [4]: effective anti-inflammatory pharmaceutical effect
Histopathological observation, anti-inflammation function [5]: excellent anti-inflammation function
Effect on atopic dermatitis symptoms [6]: alleviates atopic dermatitis symptoms
